In paper PMC11672653 (Antibiotics, 2024):

Experiments:
[1] = system: polyclonal antibodies against ERM (anti-ERM antibody); assay: Competitive indirect ELISA with anti-eremomycin antibody and heterologous VCM coating conjugates; assay type: binding, rabbit; conditions: for IC50: cross-reactivity study, eremomycin antibody-based ELISA for vancomycin (coating BSA-VCM×50f); for CR (cross-reactivity): relative to vancomycin = 100%, eremomycin antibody-based ELISA (coating BSA-VCM×50f)
Method: The coating conjugates were adsorbed in 96-well plates from solutions (0.05–1.5 µg/mL) in 0.1 mL CBB. After overnight incubation at 4 °C, the plates were washed three times with PBST to remove unbound reagent. Serial dilutions of antibodies in 0.1 mL 1% BSA-PBST were combined with standard (0, 0.01–10,000 ng/mL) in 0.1 mL PBST and incubated for 1 h at 25 °C. Following the washing procedure, the bound antibody was then detected using the GAR-HRP (1 h, 37 °C) in 0.1 mL of 1% BSA-PBS and subsequently washed out. The enzymatic activity was determined by the addition of TMB substrate (0.1 mL) to the wells, followed by the addition of 0.1 mL of 1 M sulfuric acid 30 min later, which terminated the reaction. The absorbance of the colored reaction product was read at 450 nm using a LisaScan spectrophotometer (Erba Mannheim, Karásek, Czech Republic).
The maximum optical output signal (100%) at zero concentration of VCM was referred to as B0. The decrease in the signal caused by each antibiotic concentration was expressed as the B/B0 ratio and was used to construct standard curves using a four-parameter logistic fitting in GraphPad Prism 8.0 software. The VCM half-inhibitory concentration (IC50) served as the sensitivity value for the comparison of assay variants and the cross-reactivity of analogs.
The checkerboard titration was employed to identify the optimal ratio of coating antigen to antibody, with concentrations taken in a serial fashion.

[2] = HPLC-MS/MS re-analysis of frozen VCM-spiked human serum (accuracy, stability); conditions: one week, several freeze/thaw cycles
Method: The same samples spiked with VCM were frozen and analyzed by HPLC-MS/MS one week later.
Frozen serum samples were thawed prior to analysis and assayed for VCM concentration by ELISA and LC-MS/MS in parallel. The procedure and sample preparation for LC-MS/MS analysis are detailed in the Supplementary File.
An aliquot (10 μL) of the analyte working solution and an aliquot (10 μL) of the IS working solution (1000 ng/ml) were added to an aliquot (100 μL) of serum. After vortexing the sample, 400 μL of cooled (4 °C) water contacting 15% trifluoroacetic acid was added for precipitation, and the sample was mixed well and centrifuged (2750 × g, 15 min, 4 °C). An aliquot (20 μL) of the supernatant was transferred to a test plate containing 230 μL ACN/H2O (10/90) solution for further UPLC-MS/MS analysis (Table S2). Calibration was constructed as a function of VCM concentrations versus corresponding peak area values (Figure S2).
Table S2. Calibration of spiked human serum samples using HPLC-MS/MS (n=4) […]
Figure S2. Calibration of spiked human serum samples using HPLC-MS/MS
Table S3. Recovery from spiked human serum samples using HPLC-MS/MS (N=6) […]
(1 picture or pasted object on this page, not shown here)

[3] = cited from earlier work

NCC[C@H](O)C(=O)N[C@@H]1C[C@H](N)[C@@H](O[C@H]2O[C@H](CN)[C@@H](O)[C@H](O)[C@H]2O)[C@H](O)[C@H]1O[C@H]1O[C@H](CO)[C@@H](O)[C@H](N)[C@H]1O [Amikacin]
IC50 [1]: >10,000 ng/mL | CR (cross-reactivity) [1]: <0.3%

CC[C@H]1OC(=O)[C@H](C)[C@@H](O[C@H]2C[C@@](C)(OC)[C@@H](O)[C@H](C)O2)[C@H](C)[C@@H](O[C@@H]2O[C@H](C)C[C@H](N(C)C)[C@H]2O)[C@](C)(O)C[C@@H](C)CN(C)[C@H](C)[C@@H](O)[C@]1(C)O [Azithromycin]
IC50 [1]: >10,000 ng/mL | CR (cross-reactivity) [1]: <0.3%

CNC(C)C1CCC(N)C(OC2C(N)CC(N)C(OC3OCC(C)(O)C(NC)C3O)C2O)O1 (centres unmarked) [Gentamicin]
IC50 [1]: >10,000 ng/mL | CR (cross-reactivity) [1]: <0.3%

CC(=O)NC[C@H]1CN(c2ccc(N3CCOCC3)c(F)c2)C(=O)O1 [Linezolid]
IC50 [1]: >10,000 ng/mL | CR (cross-reactivity) [1]: <0.3%

C[C@@H](O)[C@H]1C(=O)N2C(C(=O)O)=C(S[C@@H]3CN[C@H](C(=O)N(C)C)C3)[C@H](C)[C@H]12 [Meropenem]
IC50 [1]: >10,000 ng/mL | CR (cross-reactivity) [1]: <0.3%

CN(C)c1cc(NC(=O)CNC(C)(C)C)c(O)c2c1C[C@H]1C[C@H]3[C@H](N(C)C)C(O)=C(C(N)=O)C(=O)[C@@]3(O)C(O)=C1C2=O [Tigecycline]
IC50 [1]: >10,000 ng/mL | CR (cross-reactivity) [1]: <0.3%

CN[C@H](CC(C)C)C(=O)N[C@H]1C(=O)N[C@@H](CC(N)=O)C(=O)N[C@H]2C(=O)N[C@H]3C(=O)N[C@H](C(=O)N[C@H](C(=O)O)c4cc(O)cc(O)c4-c4cc3ccc4O)[C@H](O)c3ccc(c(Cl)c3)Oc3cc2cc(c3O[C@@H]2O[C@H](CO)[C@@H](O)[C@H](O)[C@H]2O[C@H]2C[C@](C)(N)[C@H](O)[C@H](C)O2)Oc2ccc(cc2Cl)[C@H]1O [Vancomycin]
stability in human serum [2]: stability of the analyte in human serum | recommended Ctrough range [3]: 15000 to 20000 ng/mL

Colistin
IC50 [1]: >10,000 ng/mL | CR (cross-reactivity) [1]: <0.3%

Eremomycin
IC50 [1]: 33.0 ng/mL | CR (cross-reactivity) [1]: 104%

Polymyxin B
IC50 [1]: >10,000 ng/mL | CR (cross-reactivity) [1]: <0.3%

Teicoplanin
IC50 [1]: >10,000 ng/mL | CR (cross-reactivity) [1]: <0.3% | CR (cross-reactivity) ([1]; listed as teicoplanin): < 0.3%
